Reference: patent publication US20250230193A1, “CYCLIC COMPOUND HAVING SELECTIVE KRAS INHIBITORY EFFECT ON HRAS AND NRAS” (CHUGAI SEIYAKU KABUSHIKI KAISHA, priority 2022, published 2025)
*1 amine or outer side, *2 acyl side, *3 side chain or, on linkers, in order; H or OH if unused. Where a SMILES comes first, the peptide text is derived from it. Bridges are numbered along the chain shown (N, C = ends). [ ]: non-standard residue; d: D form. The star is where a group is joined. hPhe(3-Cl-4-CF3) = N[C@@H](CCc1ccc(C(F)(F)F)c(Cl)c1)C(=O)O; NPrPhe(4-CF3) = CCCN[C@@H](Cc1ccc(C(F)(F)F)cc1)C(=O)O; NEtPhe(4-CF3) = CCN[C@@H](Cc1ccc(C(F)(F)F)cc1)C(=O)O; hPhe(3,4-Cl2) = N[C@@H](CCc1ccc(Cl)c(Cl)c1)C(=O)O; Abu(4,4,4-F3) = N[C@@H](CC(F)(F)F)C(=O)O; NMeGly(cPent) = CN[C@H](C(=O)O)C1CCCC1; cisHyp = O=C(O)[C@@H]1C[C@H](O)CN1; Hyp = O=C(O)[C@@H]1C[C@@H](O)CN1; Gly(cBu) = N[C@H](C(=O)O)C1CCC1; NMeD = CN[C@@H](CC(=O)O)C(=O)O; NMeL = CN[C@@H](CC(C)C)C(=O)O; X14 = N#CCN(CC(=O)[*:2])[*:1]; Ac6c = NC1(C(=O)O)CCCCC1; Morpholide = C1CN(*)CCO1; Ac5c = NC1(C(=O)O)CCCC1; NcPrGly = O=C(O)CNC1CC1; Abu = CC[C@H](N)C(=O)O; Aib = CC(C)(N)C(=O)O; NPrGly = CCCNCC(=O)O; Sar = CNCC(=O)O

Legend:
[1] = target: GDP-bound HRAS wild-type protein (Homo sapiens, UniProt P01112); experiment: Binding to HRAS by surface plasmon resonance (SPR), Single Cycle Kinetics; settings: KD ratio HRAS/KRAS, SPR
[2] = target: GDP-bound NRAS wild-type protein (Homo sapiens, UniProt P01111); experiment: Binding to NRAS by surface plasmon resonance (SPR), Single Cycle Kinetics; settings: KD ratio NRAS/KRAS, SPR
GDP-bound NRAS wild-type protein, sequence (P01111 whole entry): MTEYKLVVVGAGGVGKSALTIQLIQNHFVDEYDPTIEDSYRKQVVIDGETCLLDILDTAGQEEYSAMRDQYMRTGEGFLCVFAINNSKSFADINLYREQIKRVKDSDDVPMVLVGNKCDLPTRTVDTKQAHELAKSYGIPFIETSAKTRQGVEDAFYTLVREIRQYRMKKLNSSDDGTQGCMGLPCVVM

GDP-bound HRAS wild-type protein, sequence (P01112 whole entry): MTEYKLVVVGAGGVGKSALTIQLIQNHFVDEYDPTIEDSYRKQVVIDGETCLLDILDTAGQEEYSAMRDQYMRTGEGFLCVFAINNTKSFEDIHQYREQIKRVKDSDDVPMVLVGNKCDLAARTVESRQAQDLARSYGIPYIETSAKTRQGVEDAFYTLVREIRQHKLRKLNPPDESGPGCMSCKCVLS

| SMILES | HRAS/KRAS (ratio of KD for GDP-bound HRAS wild-type to KD for KRAS) [1] | NRAS/KRAS (ratio of KD for GDP-bound NRAS wild-type to KD for KRAS) [2] |
| --- | --- | --- |
| CC[C@H](C)[C@@H]1NC(=O)[C@H](CC(C)C)N(C)C(=O)C[C@@H](C(=O)N2CCOCC2)N(C)C(=O)[C@H](C2CCCC2)N(C)C(=O)C(C)(C)NC(=O)[C@@H]2CCCN2C(=O)[C@H](CCc2ccc(C(F)(F)F)c(Cl)c2)NC(=O)CN(C)C(=O)[C@H](Cc2ccc(C(F)(F)F)cc2)N(CC)C(=O)CN(C)C(=O)CN(C)C1=O [PP0235] ([NMeL]I[Sar][Sar][NEtPhe(4-CF3)][Sar][hPhe(3-Cl-4-CF3)]P[Aib][NMeGly(cPent)][NMeD]-Morpholide; lactam N-11) | C (A compound having a KD ratio of 0.1 or more and less than 3 is denoted as C) | B (a compound having 3 or more and less than 10 is denoted as B) |
| CC[C@H](C)[C@@H]1NC(=O)[C@H](CC(C)C)N(C)C(=O)C[C@@H](C(=O)N2CCOCC2)N(C)C(=O)[C@H](C2CCCC2)N(C)C(=O)C2(CCCCC2)NC(=O)[C@@H]2CCCN2C(=O)[C@H](CCc2ccc(C(F)(F)F)c(Cl)c2)NC(=O)CN(C)C(=O)[C@H](Cc2ccc(C(F)(F)F)cc2)N(CC)C(=O)CN(C)C(=O)CN(C)C1=O [PP0236] ([NMeL]I[Sar][Sar][NEtPhe(4-CF3)][Sar][hPhe(3-Cl-4-CF3)]P[Ac6c][NMeGly(cPent)][NMeD]-Morpholide; lactam N-11) | C (A compound having a KD ratio of 0.1 or more and less than 3 is denoted as C) | B (a compound having 3 or more and less than 10 is denoted as B) |
| CC[C@H](C)[C@@H]1NC(=O)[C@H](CC(C)C)N(C)C(=O)C[C@@H](C(=O)N2CCOCC2)N(C)C(=O)[C@H](C2CCCC2)N(C)C(=O)C2(CCCC2)NC(=O)[C@@H]2CCCN2C(=O)[C@H](CCc2ccc(Cl)c(Cl)c2)NC(=O)CN(C)C(=O)[C@H](Cc2ccc(C(F)(F)F)cc2)N(CC)C(=O)CN(C)C(=O)CN(C)C1=O [PP0237] ([NMeL]I[Sar][Sar][NEtPhe(4-CF3)][Sar][hPhe(3,4-Cl2)]P[Ac5c][NMeGly(cPent)][NMeD]-Morpholide; lactam N-11) | C (A compound having a KD ratio of 0.1 or more and less than 3 is denoted as C) | B (a compound having 3 or more and less than 10 is denoted as B) |
| CCCN1C(=O)[C@@H]2CCN2C(=O)[C@H](C)N(C)C(=O)[C@H]([C@@H](C)CC)NC(=O)[C@H](CC(C)C)N(C)C(=O)C[C@@H](C(=O)N2CCOCC2)N(C)C(=O)[C@H](C2CCCC2)N(C)C(=O)C2(CCCC2)NC(=O)[C@@H]2C[C@@H](O)CN2C(=O)[C@H](CCc2ccc(C(F)(F)F)c(Cl)c2)NC(=O)CN(C)C(=O)[C@@H]1Cc1ccc(C(F)(F)F)cc1 [PP0239] | B (a compound having 3 or more and less than 10 is denoted as B) | C (A compound having a KD ratio of 0.1 or more and less than 3 is denoted as C) |
| CCCN1C(=O)CN(C)C(=O)CN(C)C(=O)[C@H]([C@@H](C)CC)NC(=O)[C@H](CC(C)C)N(C)C(=O)C[C@@H](C(=O)N2CCOCC2)N(C)C(=O)[C@H](C2CCCC2)N(C)C(=O)C2(CCCC2)NC(=O)[C@@H]2C[C@H](O)CN2C(=O)[C@H](CCc2ccc(C(F)(F)F)c(Cl)c2)NC(=O)CN(C)C(=O)[C@@H]1Cc1ccc(C(F)(F)F)cc1 [PP0240] ([NMeL]I[Sar][Sar][NPrPhe(4-CF3)][Sar][hPhe(3-Cl-4-CF3)][cisHyp][Ac5c][NMeGly(cPent)][NMeD]-Morpholide; lactam N-11) | C (A compound having a KD ratio of 0.1 or more and less than 3 is denoted as C) | B (a compound having 3 or more and less than 10 is denoted as B) |
| CCCN1C(=O)CN(C)C(=O)CN(C)C(=O)[C@H]([C@@H](C)CC)NC(=O)[C@H](CC(C)C)N(C)C(=O)C[C@@H](C(=O)N2CCOCC2)N(C)C(=O)[C@H](C2CCCC2)N(C)C(=O)C2(CCCC2)NC(=O)[C@@H]2C[C@@H](O)CN2C(=O)[C@H](CCc2ccc(C(F)(F)F)c(Cl)c2)NC(=O)CN(C)C(=O)[C@@H]1Cc1ccc(C(F)(F)F)cc1 [PP0241] ([NMeL]I[Sar][Sar][NPrPhe(4-CF3)][Sar][hPhe(3-Cl-4-CF3)][Hyp][Ac5c][NMeGly(cPent)][NMeD]-Morpholide; lactam N-11) | C (A compound having a KD ratio of 0.1 or more and less than 3 is denoted as C) | B (a compound having 3 or more and less than 10 is denoted as B) |
| CCCN1C(=O)CN(C)C(=O)CN(C)C(=O)[C@H]([C@@H](C)CC)NC(=O)[C@H](CC(C)C)N(C)C(=O)C[C@@H](C(=O)N2CCOCC2)N(C)C(=O)[C@H](C2CCCC2)N(C)C(=O)C2(CCCC2)NC(=O)[C@@H]2C[C@H](OCC)CN2C(=O)[C@H](CCc2ccc(C(F)(F)F)c(Cl)c2)NC(=O)CN(C)C(=O)[C@@H]1Cc1ccc(C(F)(F)F)cc1 [PP0243] ([NMeL]I[Sar][Sar][NPrPhe(4-CF3)][Sar][hPhe(3-Cl-4-CF3)][cisHyp](Et)[Ac5c][NMeGly(cPent)][NMeD]-Morpholide; lactam N-11) | C (A compound having a KD ratio of 0.1 or more and less than 3 is denoted as C) | B (a compound having 3 or more and less than 10 is denoted as B) |
| CCCN1C(=O)CN(C)C(=O)CN(C)C(=O)[C@H](CC)NC(=O)[C@H](CC(C)C)N(C)C(=O)C[C@@H](C(=O)N2CCOCC2)N(C)C(=O)[C@H](C2CCCC2)N(C)C(=O)C2(CCCC2)NC(=O)[C@@H]2CCCN2C(=O)[C@H](CCc2ccc(C(F)(F)F)c(Cl)c2)NC(=O)CN(C)C(=O)[C@@H]1Cc1ccc(C(F)(F)F)cc1 [PP0248] ([NMeL][Abu][Sar][Sar][NPrPhe(4-CF3)][Sar][hPhe(3-Cl-4-CF3)]P[Ac5c][NMeGly(cPent)][NMeD]-Morpholide; lactam N-11) | B (a compound having 3 or more and less than 10 is denoted as B) | B (a compound having 3 or more and less than 10 is denoted as B) |
| CCCN1C(=O)CN(C)C(=O)CN(C)C(=O)[C@H](CC(F)(F)F)NC(=O)[C@H](CC(C)C)N(C)C(=O)C[C@@H](C(=O)N2CCOCC2)N(C)C(=O)[C@H](C2CCCC2)N(C)C(=O)C2(CCCC2)NC(=O)[C@@H]2CCCN2C(=O)[C@H](CCc2ccc(C(F)(F)F)c(Cl)c2)NC(=O)CN(C)C(=O)[C@@H]1Cc1ccc(C(F)(F)F)cc1 [PP0249] ([NMeL][Abu(4,4,4-F3)][Sar][Sar][NPrPhe(4-CF3)][Sar][hPhe(3-Cl-4-CF3)]P[Ac5c][NMeGly(cPent)][NMeD]-Morpholide; lactam N-11) | C (A compound having a KD ratio of 0.1 or more and less than 3 is denoted as C) | B (a compound having 3 or more and less than 10 is denoted as B) |
| CCCN1C(=O)CN(C)C(=O)CN(C)C(=O)[C@H](C2CCC2)NC(=O)[C@H](CC(C)C)N(C)C(=O)C[C@@H](C(=O)N2CCOCC2)N(C)C(=O)[C@H](C2CCCC2)N(C)C(=O)C2(CCCC2)NC(=O)[C@@H]2CCCN2C(=O)[C@H](CCc2ccc(C(F)(F)F)c(Cl)c2)NC(=O)CN(C)C(=O)[C@@H]1Cc1ccc(C(F)(F)F)cc1 [PP0250] ([NMeL][Gly(cBu)][Sar][Sar][NPrPhe(4-CF3)][Sar][hPhe(3-Cl-4-CF3)]P[Ac5c][NMeGly(cPent)][NMeD]-Morpholide; lactam N-11) | C (A compound having a KD ratio of 0.1 or more and less than 3 is denoted as C) | B (a compound having 3 or more and less than 10 is denoted as B) |
| CCCN1C(=O)CN(C)C(=O)CN(C2CC2)C(=O)[C@H]([C@@H](C)CC)NC(=O)[C@H](CC(C)C)N(C)C(=O)C[C@@H](C(=O)N2CCOCC2)N(C)C(=O)[C@H](C2CCCC2)N(C)C(=O)C2(CCCC2)NC(=O)[C@@H]2CCCN2C(=O)[C@H](CCc2ccc(C(F)(F)F)c(Cl)c2)NC(=O)CN(C)C(=O)[C@@H]1Cc1ccc(C(F)(F)F)cc1 [PP0252] ([NMeL]I[NcPrGly][Sar][NPrPhe(4-CF3)][Sar][hPhe(3-Cl-4-CF3)]P[Ac5c][NMeGly(cPent)][NMeD]-Morpholide; lactam N-11) | B (a compound having 3 or more and less than 10 is denoted as B) | B (a compound having 3 or more and less than 10 is denoted as B) |
| CCCN1CC(=O)N(C)CC(=O)N(CCC)[C@@H](Cc2ccc(C(F)(F)F)cc2)C(=O)N(C)CC(=O)N[C@@H](CCc2ccc(C(F)(F)F)c(Cl)c2)C(=O)N2CCC[C@H]2C(=O)NC2(CCCC2)C(=O)N(C)[C@@H](C2CCCC2)C(=O)N(C)[C@H](C(=O)N2CCOCC2)CC(=O)N(C)[C@@H](CC(C)C)C(=O)N[C@@H]([C@@H](C)CC)C1=O [PP0253] ([NMeL]I[NPrGly][Sar][NPrPhe(4-CF3)][Sar][hPhe(3-Cl-4-CF3)]P[Ac5c][NMeGly(cPent)][NMeD]-Morpholide; lactam N-11) | B (a compound having 3 or more and less than 10 is denoted as B) | B (a compound having 3 or more and less than 10 is denoted as B) |
| CCCN1C(=O)CN(C)C(=O)CN(CC#N)C(=O)[C@H]([C@@H](C)CC)NC(=O)[C@H](CC(C)C)N(C)C(=O)C[C@@H](C(=O)N2CCOCC2)N(C)C(=O)[C@H](C2CCCC2)N(C)C(=O)C2(CCCC2)NC(=O)[C@@H]2CCCN2C(=O)[C@H](CCc2ccc(C(F)(F)F)c(Cl)c2)NC(=O)CN(C)C(=O)[C@@H]1Cc1ccc(C(F)(F)F)cc1 [PP0254] ([NMeL]I[X14][Sar][NPrPhe(4-CF3)][Sar][hPhe(3-Cl-4-CF3)]P[Ac5c][NMeGly(cPent)][NMeD]-Morpholide; lactam N-11) | C (A compound having a KD ratio of 0.1 or more and less than 3 is denoted as C) | B (a compound having 3 or more and less than 10 is denoted as B) |
